Legend:
[1] = method code SF-AS, from DOI: 10.1080/01483919008048971; conditions: pH 5.0

Row | logD [1] | logP | Compound
1 | 1.4 | – | CCCN1Cn2c(nc3ccccc3c2=O)C1C (stereo not given)
2 | 1.6 | – | CCCCN1Cn2c(nc3ccccc3c2=O)C1C (stereo not given)
3 | – | 1.8 | CC1c2nc3ccccc3c(=O)n2CN1CCc1ccccc1 (stereo not given)
4 | 0.46 | – | CC1c2nc3ccccc3c(=O)n2CN1CCO (stereo not given)
5 | – | 1.78 | CC1c2nc3ccccc3c(=O)n2CN1c1ccccc1 (stereo not given)
6 | – | 2.16 | Cc1ccc(N2Cn3c(nc4ccccc4c3=O)C2C)cc1 (stereo not given)
7 | 0.85 | – | CC1c2nc3ccccc3c(=O)n2CN1C (stereo not given)
8 | 1.02 | – | CCN1Cn2c(nc3ccccc3c2=O)C1C (stereo not given)
9 | – | 1.73 | COc1ccc(N2Cn3c(nc4ccccc4c3=O)C2C)cc1 (stereo not given)
10 | – | 1.74 | CC1c2nc3ccccc3c(=O)n2CN1Cc1ccccc1 (stereo not given)
